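96-well plates; 48 h exposure; 5 concentrations. Endpoints by linear interpolation between flanking doses. Not reached: highest tested concentration assigned. GI50 marks 50% less growth.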 Activity calls are given as the source filed them. Rule as the data show it: active = GI50 up to about 1.1 µM and inactive = higher.
Key:
Test in all cases: NCI-60 cell line screen, 48 h
SF-295 = tested on: SF-295
RPMI-8226 = tested on: RPMI-8226
SR = tested on: SR
OVCAR-5 = tested on: OVCAR-5
KM-20L2 = tested on: KM-20L2
SW-620 = tested on: SW-620
HT-29 = tested on: HT-29
UO-31 = tested on: UO-31
NCI-H522 = tested on: NCI-H522
MOLT-4 = tested on: MOLT-4
HOP-18 = tested on: HOP-18
SNB-19 = tested on: SNB-19
SK-MEL-5 = tested on: SK-MEL-5
SN12C = tested on: SN12C
SF-268 = tested on: SF-268
DMS-273 = tested on: DMS-273
OVCAR-8 = tested on: OVCAR-8
LXFL 529 = tested on: LXFL 529
SK-MEL-2 = tested on: SK-MEL-2
786-0 = tested on: 786-0
RXF 631 = tested on: RXF 631
M14 = tested on: M14
UACC-257 = tested on: UACC-257
OVCAR-4 = tested on: OVCAR-4
A549 = tested on: A549
HOP-62 = tested on: HOP-62
OVCAR-3 = tested on: OVCAR-3
A498 = tested on: A498
HCC 2998 = tested on: HCC 2998
UACC-62 = tested on: UACC-62
SNB-75 = tested on: SNB-75
KM12 = tested on: KM12
EKVX = tested on: EKVX
HL-60 = tested on: HL-60
Malme-3M = tested on: Malme-3M
HOP-92 = tested on: HOP-92
DMS-114 = tested on: DMS-114
K562 = tested on: K562
COLO 205 = tested on: COLO 205
NCI-H460 = tested on: NCI-H460
SNB-78 = tested on: SNB-78
SK-MEL-28 = tested on: SK-MEL-28
IGROV-1 = tested on: IGROV-1
M19-MEL = tested on: M19-MEL
NCI-H226 = tested on: NCI-H226
SK-OV-3 = tested on: SK-OV-3
CAKI-1 = tested on: CAKI-1
LOX IMVI = tested on: LOX IMVI
HCT-116 = tested on: HCT-116
HCT-15 = tested on: HCT-15
SF-539 = tested on: SF-539
U-251 = tested on: U-251
ACHN = tested on: ACHN
RXF 393 = tested on: RXF 393
XF498 = tested on: XF498
NCI-H23 = tested on: NCI-H23
CCRF-CEM = tested on: CCRF-CEM
TK-10 = tested on: TK-10
DLD-1 = tested on: DLD-1

`CCCCCCCCCCCCC(CC)CCCCC(=O)O` (stereo not given) was tested, and the GI50 (SF-295) was > 100 µM (inactive), the GI50 (RPMI-8226) was > 56.4 µM (inactive) and the GI50 (SR) was > 53.2 µM (inactive). For the same compound, the GI50 (OVCAR-5) was > 100 µM (inactive), the GI50 (KM-20L2) was > 100 µM (inactive) and the GI50 (SW-620) was > 61.2 µM (inactive). The GI50 (HT-29) was > 65.6 µM (inactive), the GI50 (UO-31) was > 100 µM (inactive) and the GI50 (NCI-H522) was > 100 µM (inactive). The GI50 (MOLT-4) was 27 µM (inactive), the GI50 (HOP-18) was > 100 µM (inactive) and the GI50 (SNB-19) was > 100 µM (inactive). For the same compound, the GI50 (SK-MEL-5) was > 100 µM (inactive), the GI50 (SN12C) was > 83 µM (inactive) and the GI50 (SF-268) was > 100 µM (inactive). For the same compound, the GI50 (DMS-273) was > 100 µM (inactive), the GI50 (OVCAR-8) was > 100 µM (inactive) and the GI50 (LXFL 529) was > 100 µM (inactive). The GI50 (SK-MEL-2) was > 100 µM (inactive), the GI50 (786-0) was 31.8 µM (inactive) and the GI50 (RXF 631) was > 100 µM (inactive). The GI50 (M14) was > 100 µM (inactive), the GI50 (UACC-257) was > 100 µM (inactive) and the GI50 (OVCAR-4) was > 100 µM (inactive). For the same compound, the GI50 (A549) was > 100 µM (inactive), the GI50 (HOP-62) was > 100 µM (inactive) and the GI50 (OVCAR-3) was > 100 µM (inactive). The GI50 (A498) was > 100 µM (inactive), the GI50 (HCC 2998) was > 100 µM (inactive) and the GI50 (UACC-62) was > 100 µM (inactive). The GI50 (SNB-75) was > 100 µM (inactive), the GI50 (KM12) was > 100 µM (inactive) and the GI50 (EKVX) was > 56.2 µM (inactive). For the same compound, the GI50 (HL-60) was > 63.1 µM (inactive), the GI50 (Malme-3M) was > 100 µM (inactive) and the GI50 (HOP-92) was > 73.3 µM (inactive). The GI50 (DMS-114) was > 100 µM (inactive), the GI50 (K562) was 40.6 µM (inactive) and the GI50 (COLO 205) was > 58.3 µM (inactive). The GI50 (NCI-H460) was > 62.4 µM (inactive), the GI50 (SNB-78) was > 100 µM (inactive) and the GI50 (SK-MEL-28) was > 100 µM (inactive). The GI50 (IGROV-1) was > 100 µM (inactive), the GI50 (M19-MEL) was > 100 µM (inactive) and the GI50 (NCI-H226) was > 100 µM (inactive). For the same compound, the GI50 (SK-OV-3) was > 100 µM (inactive), the GI50 (CAKI-1) was > 100 µM (inactive) and the GI50 (LOX IMVI) was > 65.5 µM (inactive). The GI50 (HCT-116) was > 53.1 µM (inactive), the GI50 (HCT-15) was > 100 µM and the GI50 (SF-539) was > 44.6 µM (inactive). For the same compound, the GI50 (U-251) was > 47.6 µM (inactive), the GI50 (ACHN) was > 100 µM (inactive) and the GI50 (RXF 393) was > 60 µM (inactive). The GI50 (XF498) was > 100 µM (inactive), the GI50 (NCI-H23) was > 78.7 µM (inactive) and the GI50 (CCRF-CEM) was 22.6 µM (inactive). The GI50 (TK-10) was > 100 µM (inactive) and the GI50 (DLD-1) was > 100 µM (inactive).

With `CCCCCCCCCCCCCCCc1ccc(OCC(O)CO)cc1` (stereo not given) the GI50 (SF-295) was 50.1 µM (inactive), the GI50 (RPMI-8226) was 18.9 µM (inactive) and the GI50 (SR) was > 100 µM (inactive). The GI50 (OVCAR-5) was > 100 µM (inactive), the GI50 (KM-20L2) was 31.6 µM (inactive) and the GI50 (SW-620) was 22.3 µM (inactive). The GI50 (HT-29) was 21.7 µM (inactive), the GI50 (UO-31) was > 100 µM (inactive) and the GI50 (NCI-H522) was 18.2 µM (inactive). The GI50 (MOLT-4) was > 100 µM (inactive), the GI50 (HOP-18) was > 100 µM (inactive) and the GI50 (SNB-19) was 40.1 µM (inactive). The GI50 (SK-MEL-5) was 34 µM (inactive), the GI50 (SN12C) was 18 µM (inactive) and the GI50 (SF-268) was 27.9 µM (inactive). The GI50 (DMS-273) was 17.7 µM (inactive), the GI50 (OVCAR-8) was 25.7 µM (inactive) and the GI50 (LXFL 529) was 26.7 µM (inactive). The GI50 (SK-MEL-2) was 18.9 µM (inactive), the GI50 (RXF 631) was 27.1 µM (inactive) and the GI50 (M14) was 17.9 µM (inactive). The GI50 (UACC-257) was 38.8 µM (inactive), the GI50 (OVCAR-4) was 16.3 µM (inactive) and the GI50 (A549) was 22.6 µM (inactive). The GI50 (HOP-62) was 47.1 µM (inactive), the GI50 (OVCAR-3) was 23 µM (inactive) and the GI50 (A498) was 89.5 µM (inactive). The GI50 (HCC 2998) was 22.9 µM (inactive), the GI50 (UACC-62) was 23.9 µM (inactive) and the GI50 (SNB-75) was 27 µM (inactive). For the same compound, the GI50 (KM12) was 17.2 µM (inactive), the GI50 (EKVX) was 31.9 µM (inactive) and the GI50 (HL-60) was 27.7 µM (inactive). The GI50 (Malme-3M) was 22.4 µM (inactive), the GI50 (HOP-92) was 20.7 µM (inactive) and the GI50 (DMS-114) was 29.7 µM (inactive). For the same compound, the GI50 (K562) was > 100 µM (inactive), the GI50 (COLO 205) was 23.6 µM (inactive) and the GI50 (NCI-H460) was 24.3 µM (inactive). The GI50 (SNB-78) was 29.7 µM (inactive), the GI50 (SK-MEL-28) was 25.6 µM (inactive) and the GI50 (IGROV-1) was 31.3 µM (inactive). For the same compound, the GI50 (M19-MEL) was 18 µM (inactive), the GI50 (NCI-H226) was 25.7 µM (inactive) and the GI50 (SK-OV-3) was 99.3 µM (inactive). For the same compound, the GI50 (CAKI-1) was 31.6 µM (inactive), the GI50 (LOX IMVI) was 18.2 µM (inactive) and the GI50 (HCT-116) was 17.1 µM (inactive). The GI50 (HCT-15) was 81.8 µM, the GI50 (SF-539) was 49.7 µM (inactive) and the GI50 (U-251) was 23.7 µM (inactive). The GI50 (ACHN) was 65 µM (inactive), the GI50 (RXF 393) was 18.7 µM (inactive) and the GI50 (XF498) was 19.4 µM (inactive). The GI50 (NCI-H23) was 17.8 µM (inactive), the GI50 (CCRF-CEM) was > 100 µM (inactive) and the GI50 (TK-10) was > 100 µM (inactive). For the same compound, the GI50 (DLD-1) was 44.2 µM (inactive).

`COc1ccc(CNc2cc(OC)c(OC)c(OC)c2)cc1` was tested, and the GI50 (SF-295) was 4.18 µM (inactive), the GI50 (RPMI-8226) was 4.18 µM (inactive) and the GI50 (SR) was 3.25 µM (inactive). For the same compound, the GI50 (OVCAR-5) was > 25.3 µM (inactive), the GI50 (KM-20L2) was 2.8 µM (inactive) and the GI50 (SW-620) was 3.31 µM (inactive). The GI50 (HT-29) was 3.66 µM (inactive), the GI50 (UO-31) was 10.4 µM (inactive) and the GI50 (NCI-H522) was 3.12 µM (inactive). The GI50 (MOLT-4) was 3.98 µM (inactive), the GI50 (HOP-18) was > 21.7 µM (inactive) and the GI50 (SNB-19) was 6.85 µM (inactive). For the same compound, the GI50 (SK-MEL-5) was 3.35 µM (inactive), the GI50 (SN12C) was 7.71 µM (inactive) and the GI50 (SF-268) was 3.43 µM (inactive). The GI50 (DMS-273) was 2.09 µM (inactive), the GI50 (OVCAR-8) was 8.99 µM (inactive) and the GI50 (LXFL 529) was 7.64 µM (inactive). For the same compound, the GI50 (SK-MEL-2) was 2.72 µM (inactive), the GI50 (786-0) was 12.2 µM (inactive) and the GI50 (RXF 631) was 3.47 µM (inactive). The GI50 (M14) was 6.82 µM (inactive), the GI50 (UACC-257) was 7.21 µM (inactive) and the GI50 (OVCAR-4) was 12.4 µM (inactive). The GI50 (A549) was 6.11 µM (inactive), the GI50 (HOP-62) was 5.57 µM (inactive) and the GI50 (OVCAR-3) was 3.14 µM (inactive). For the same compound, the GI50 (A498) was 9.08 µM (inactive), the GI50 (HCC 2998) was 6.32 µM (inactive) and the GI50 (UACC-62) was 3.32 µM (inactive). The GI50 (SNB-75) was 5.57 µM (inactive), the GI50 (KM12) was 2.25 µM (inactive) and the GI50 (EKVX) was 14.6 µM (inactive). The GI50 (HL-60) was 2.67 µM (inactive), the GI50 (Malme-3M) was 7.03 µM (inactive) and the GI50 (HOP-92) was 7.48 µM (inactive). For the same compound, the GI50 (DMS-114) was 3.01 µM (inactive), the GI50 (K562) was 2.18 µM (inactive) and the GI50 (COLO 205) was 2.84 µM (inactive). For the same compound, the GI50 (NCI-H460) was 3.47 µM (inactive), the GI50 (SNB-78) was 4.62 µM (inactive) and the GI50 (SK-MEL-28) was 2.94 µM (inactive). The GI50 (IGROV-1) was 5.89 µM (inactive), the GI50 (M19-MEL) was 4.57 µM (inactive) and the GI50 (NCI-H226) was 7.5 µM (inactive). The GI50 (SK-OV-3) was 5.65 µM (inactive), the GI50 (CAKI-1) was 4.36 µM (inactive) and the GI50 (LOX IMVI) was 5.94 µM (inactive). For the same compound, the GI50 (HCT-116) was 3.37 µM (inactive), the GI50 (HCT-15) was 3.52 µM and the GI50 (SF-539) was 6.21 µM (inactive). For the same compound, the GI50 (U-251) was 3.78 µM (inactive), the GI50 (ACHN) was 12.1 µM (inactive) and the GI50 (RXF 393) was 5.89 µM (inactive). The GI50 (XF498) was 21.3 µM (inactive), the GI50 (NCI-H23) was 6.08 µM (inactive) and the GI50 (CCRF-CEM) was 4.48 µM (inactive). For the same compound, the GI50 (DLD-1) was 5.66 µM (inactive).
